Ends that are not written are not given here.
System: MAb4155 (anti-estrone-3-glucuronide monoclonal antibody)
Assay: ELISA testing of peptides on pins: binding of MAb4155 to peptides
Set-up: species or system mouse
Settings: D-isomer reverse sequence versus L-isomer parent

Substance | Binding affinity relative to the parent sequence (SEQ ID NO:28)
Asp-Tyr-Phe-Leu-Gly (DYFLG) [SEQ ID NO:37] | equivalent

System: MAb4155 (anti-estrone-3-glucuronide monoclonal antibody)
Assay: as above
Set-up: species or system mouse
Settings: Table 1; peptides on pins based on SEQ ID NO:2 (truncations, Ala/Gly replacement)
Protocol: Monoclonal antibodies MAb 4155 were expressed from the 4155 monoclonal cell line. The 4155 monoclonal cell line was prepared and screened according to the methods described by Gani et al., (3 Steroid Biochem. Molec. Biol. 48, 277-282 (1994)).
Peptides were synthesised in duplicate or triplicate from the C-terminus by solid phase peptide synthesis on the heads of polyethylene pins (Geysen et al., Strategies for epitope analysis using peptide synthesis. J. Immunol. Methods 102, 259-274 (1987)) using a Multipin Peptide Synthesis Kit (Chiron Mimotopes, Victoria, Australia). Pins were arranged in a plastic holder in the format of a 96-well microtitre plate.
All incubation steps were performed at room temperature (18-25° C.) by lowering the pins reagents dispensed into 96-well microtitre plates (Becton Dickinson, Calif., USA). Washing was accomplished by placing the block of pins in a bath of phosphate buffered saline (PBS) containing Tween 20™ (0.01% v/v) with agitation for four cycles of 5 min. Non-specific binding sites on the surface of the pins were blocked by incubating in PBS containing casein (1% w/v, 175 μl/well) for 1 h. MAb4155 was diluted in blocking buffer and the pins were incubated in the antibody solution (150 μl/well) for 18 h at 4° C. After washing, the pins were incubated in horseradish peroxidase (HRP)-conjugated rabbit anti-mouse immunoglobulin (Dako, High Wycombe, UK, 1/1000 in blocking buffer for 1 h at 150 μl/well). The pins were washed once more and then incubated in ABTS [2,2′-azino-bis (3ethylbenzothiazoline-6-sulphonic acid)] working substrate for 15 min (150 μl/well). ABTS was prepared as a 0.033% (w/v) solution in 0.1M citrate phosphate buffer (pH 4.5) with 33% hydrogen peroxide (1 μl/ml). Colour development was terminated by removal of the pins from the wells and was measured spectrophotometrically at 405 nm using a Milenia Kinetic Analyser™ (DPC, Llanberis, Wales).
In order to identify core binding regions, a set of peptides was synthesised on the heads of pins based on SEQ ID NO:2. […] In addition, a set of peptides was synthesised in which each residue of the lead sequence was replaced by Ala (or Gly if Ala already existed at that position) in order to assess the contribution of each residue to the binding event.
Additional core binding sequences were identified utilizing the amino acid sequence SEQ ID NO:8 and investigating the effect of systematic replacement of each residue by the other 19 naturally occurring amino acids using known techniques as exemplified in Verhoeyen et al., Construction of a reshaped HMFG1 antibody and comparison of its fine specificity with that of the parent mouse antibody. Immunology, 78, 364-370 (1993).

Substance | Relative Binding of MAb4155 to peptides as measured by ELISA
AAARGLFED [SEQ ID NO:14] | 1.5
AAEAGLFED [SEQ ID NO:15] | 2.0
AAERALFED [SEQ ID NO:16] | 1.5
AAERGAFED [SEQ ID NO:17] | 1.6
AAERGL [SEQ ID NO:73] | 1.0
AAERGLAED [SEQ ID NO:78] | 0.8
AAERGLF [SEQ ID NO:72] | 1.0
AAERGLFAD [SEQ ID NO:79] | 1.8
AAERGLFE [SEQ ID NO:71] | 1.0
AAERGLFEA [SEQ ID NO:80] | 1.1
AAERGLFED [SEQ ID NO:2] | 2.0
AERGLFED [SEQ ID NO:11] | 1.5
AGERGLFED [SEQ ID NO:13] | 2.0
Ala-Ala-Glu (AAE) [SEQ ID NO:76] | 0.9
Ala-Ala-Glu-Arg (AAER) [SEQ ID NO:75] | 0.8
Ala-Ala-Glu-Arg-Gly (AAERG) [SEQ ID NO:74] | 1.0
ERGLFED [SEQ ID NO:10] | 1.8
GAERGLFED [SEQ ID NO:12] | 1.9
Gly-Leu-Phe-Glu-Asp (GLFED) [SEQ ID NO:8] | 2.2
Leu-Phe-Glu-Asp (LFED) [SEQ ID NO:7] | 1.9
Phe-Glu-Asp (FED) [SEQ ID NO:6] | 2.0
RGLFED [SEQ ID NO:9] | 1.6

Same assay, conditions: Table 2; replacement analogues of SEQ ID NO:8, setting SEQ ID NO:8 to a Relative Binding of 100

Substance | Relative Binding of MAb4155 to peptides as measured by ELISA
Gly-Leu-Phe-Asp-Asp (GLFDD) [SEQ ID NO:23] | 121
Gly-Leu-Phe-Cys-Asp (GLFCD) [SEQ ID NO:22] | 335
Gly-Leu-Phe-Glu-Asp (GLFED) [SEQ ID NO:8] | 100
Gly-Leu-Phe-Glu-Cys (GLFEC) [SEQ ID NO:29] | 296
Gly-Leu-Phe-Glu-Ile (GLFEI) [SEQ ID NO:31] | 174
Gly-Leu-Phe-Glu-Leu (GLFEL) [SEQ ID NO:32] | 168
Gly-Leu-Phe-Glu-Phe (GLFEF) [SEQ ID NO:30] | 204
Gly-Leu-Phe-Glu-Trp (GLFEW) [SEQ ID NO:34] | 594
Gly-Leu-Phe-Glu-Tyr (GLFEY) [SEQ ID NO:35] | 386
Gly-Leu-Phe-Glu-Val (GLFEV) [SEQ ID NO:33] | 177
Gly-Leu-Phe-Ile-Asp (GLFID) [SEQ ID NO:25] | 169
Gly-Leu-Phe-Leu-Asp (GLFLD) [SEQ ID NO:26] | 138
Gly-Leu-Phe-Phe-Asp (GLFFD) [SEQ ID NO:24] | 184
Gly-Leu-Phe-Trp-Asp (GLFWD) [SEQ ID NO:27] | 578
Gly-Leu-Phe-Tyr-Asp (GLFYD) [SEQ ID NO:28] | 252
Gly-Leu-Trp-Glu-Asp (GLWED) [SEQ ID NO:21] | 207
Gly-Phe-Phe-Glu-Asp (GFFED) [SEQ ID NO:18] | 200
Gly-Trp-Phe-Glu-Asp (GWFED) [SEQ ID NO:19] | 343
Gly-Tyr-Phe-Glu-Asp (GYFED) [SEQ ID NO:20] | 220
